Measurements from PubChem BioAssay (NCI).
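Results reflect a 48-hour exposure of cells in 96-well plates to compound at five concentrations. At the TGI there is no net growth.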

How the values were obtained:
Assay in all cases: NCI-60 cell line screen, 48 h
EKVX NSCLC = test system: EKVX NSCLC
CCRF-CEM leukemia = test system: CCRF-CEM leukemia
NCI-H23 lung = test system: NCI-H23 lung
SK-OV-3 ovarian = test system: SK-OV-3 ovarian
SNB-19 CNS = test system: SNB-19 CNS
IGROV1 ovarian = test system: IGROV1 ovarian
RXF 393 renal = test system: RXF 393 renal
SR leukemia = test system: SR leukemia
DU-145 prostate = test system: DU-145 prostate
COLO 205 colon = test system: COLO 205 colon
HL-60(TB) leukemia = test system: HL-60(TB) leukemia
RPMI-8226 leukemia = test system: RPMI-8226 leukemia
LOX IMVI melanoma = test system: LOX IMVI melanoma
MOLT-4 leukemia = test system: MOLT-4 leukemia
UACC-257 melanoma = test system: UACC-257 melanoma
T-47D breast = test system: T-47D breast
HOP-92 NSCLC = test system: HOP-92 NSCLC

| Structure (SMILES) | TGI (EKVX NSCLC) [µM] | TGI (CCRF-CEM leukemia) [µM] | TGI (NCI-H23 lung) [µM] | TGI (SK-OV-3 ovarian) [µM] | TGI (SNB-19 CNS) [µM] | TGI (IGROV1 ovarian) [µM] | TGI (RXF 393 renal) [µM] | TGI (SR leukemia) [µM] | TGI (DU-145 prostate) [µM] | TGI (COLO 205 colon) [µM] | TGI (HL-60(TB) leukemia) [µM] | TGI (RPMI-8226 leukemia) [µM] | TGI (LOX IMVI melanoma) [µM] | TGI (MOLT-4 leukemia) [µM] | TGI (UACC-257 melanoma) [µM] | TGI (T-47D breast) [µM] | TGI (HOP-92 NSCLC) [µM] |
| --- | --- | --- | --- | --- | --- | --- | --- | --- | --- | --- | --- | --- | --- | --- | --- | --- | --- |
| CC[C@]12C=CCN3CC[C@@]4(c5cc(Br)c(OC)c([N+](=O)[O-])c5N(C)[C@H]4[C@@](O)(C(=O)OC)[C@@H]1OC(C)=O)[C@@H]32 | 91.4 | > 100 | > 100 | > 100 | > 100 | 61.4 | > 100 | > 100 | > 100 | > 100 | > 100 | > 100 | > 100 | 70.6 | > 100 | > 100 |  |
| Cc1cn(C2OC(CO[Si](C)(C)C(C)(C)C)/C(=C\C#N)C2O[Si](C)(C)C(C)(C)C)c(=O)[nH]c1=O (configuration not stated) |  | > 100 | > 100 | > 100 | > 100 |  | 92 | > 100 | > 100 | > 100 |  | > 100 | > 100 | > 100 | > 100 | > 100 | > 100 |
| CC(=O)O[C@H]1C(=O)[C@@]2(C)[C@H]([C@H](OC(=O)c3ccccc3)[C@]3(O)C[C@H](OC(=O)[C@H](O)[C@@H](NC(=O)c4ccc(N)cc4)c4ccccc4)C(C)=C1C3(C)C)[C@]1(OC(C)=O)CO[C@@H]1C[C@@H]2O | > 50 | > 23.7 |  |  | > 50 | > 50 | > 50 | > 41.9 | 31.4 |  | 0.318 | < 0.005 | > 50 | > 29.5 |  | > 50 | > 50 |
| COc1cc2c(/C=C3/C(=O)Nc4ccc(O)cc43)c(Cl)n(Cc3ccccc3)c2cc1C | > 100 | > 100 | 3.89 | > 60.2 | 18.3 | 16.8 | 5.06 | 3.35 | 26 |  |  | 6.74 | 24.9 | > 100 | > 56.5 | > 74.8 | > 78.3 |
| OCC1OC(NC(=S)NCCC(F)(F)C(F)(F)C(F)(F)C(F)(F)C(F)(F)C(F)(F)F)C(O)C(O)C1O (configuration not stated) |  | > 100 | > 100 | > 100 | > 100 | > 100 | > 100 | > 100 | > 100 | > 100 | > 100 | > 100 | > 100 | > 100 | > 100 | > 100 | > 100 |
| Cc1nc(N)c(N2CCN(S(N)(=O)=O)CC2)c(=O)[nH]1 | > 100 | > 100 | > 100 |  | > 100 |  |  | > 100 | > 100 | > 100 | > 100 | > 100 | > 100 | > 100 | > 100 | > 100 |  |
| CCOC(=O)/C=C/CC(C)(C)COC(C)=O |  | > 10 | > 10 | > 10 |  |  | > 10 | > 10 | > 10 |  | > 10 | > 10 | > 10 | > 10 | > 10 | > 10 |  |
| O=C(/C=C/c1cccc([N+](=O)[O-])c1)N1CCN(CCOC(c2ccccc2)c2ccccc2)CC1 | > 100 | 65.4 | > 100 | > 100 | > 100 | > 100 | > 100 | 32.9 | > 100 | 91.9 |  | 27.8 | 62.1 | 27.4 | 89.2 | > 100 | 55.7 |
| C=C(C)C1CC=C(C)C(=O)C1 (configuration not stated) | > 100 | > 100 | > 100 |  | > 100 | > 100 |  | > 100 | > 100 | > 100 | > 100 | > 100 | > 100 | > 100 | > 100 | > 100 | > 100 |
| CC(C)CCCC(C)[C@H]1CC[C@H]2n3c(nnc3-c3ccccc3)CCC[C@]12C (some centres not stated) |  | 24.6 | 28.8 | 26.9 | 28.2 | 23.4 | 27 | 26.3 | 83 | 14.8 | 16.2 | 21.1 | 12.5 | 13.2 | 26.9 | 37.4 | 37 |
| O=C(O)c1cccc(Nc2c(C(=O)O)cccc2[N+](=O)[O-])c1 | > 100 | > 100 | > 100 | > 100 | > 100 | > 100 |  | > 100 | > 100 | > 100 | > 100 | > 100 | > 100 | > 100 | > 100 | > 100 | > 100 |
